According to patent US6465457B1 (priority 1991, dated 2002):
Read-outs that look alike come from different tables or passages of the source.

Columns and labels:
Type in all cases: in vivo
[1] = test system: Erysiphe graminis tritici (Wheat); test: Foliar fungal disease test on plants: Erysiphe graminis tritici (Wheat); conditions: plants inoculated 24 hours before treatment
Septoria nodorum (Wheat) = test: Foliar fungal disease test on plants: Septoria nodorum (Wheat); conditions: one or two days before inoculation
[2] = test system: Puccinia recondita (Wheat); test: Foliar fungal disease test on plants: Puccinia recondita (Wheat)
[3] = test system: Plasmopara viticola (Vines); test: Foliar fungal disease test on plants: Plasmopara viticola (Vines); conditions: one or two days before inoculation
[4] = test system: Phytophthora infestans (Tomatoes); conditions: one or two days before inoculation
[5] = test system: Pyricularia oryzae (Rice); conditions: one or two days before inoculation
[6] = test system: Venturia inaequalis (Apples); test: Foliar fungal disease test on plants: Venturia inaequalis (Apples); conditions: one or two days before inoculation
[7] = test system: Thanatephorus cucumeries (Rice); test: Foliar fungal disease test on plants: Thanatephorus cucumeries (Rice); conditions: one or two days before inoculation
[8] = 100 ppm a.i. foliar spray or root drench (approx. 40 ppm in dry soil)
[9] = 100 ppm a.i. foliar spray or root drench, plants inoculated with Puccinia recondita 48 hours before treatment
[10] = 10 ppm foliar spray only, plants inoculated with Puccinia recondita 48 hours before treatment
[11] = 100 ppm a.i. foliar spray or root drench (approx. 40 ppm in dry soil), one or two days before inoculation

| Compound | POCO (Percentage of Control) disease level, Erysiphe graminis tritici (Wheat) [1, 8] | POCO (Percentage of Control) disease level, Septoria nodorum (Wheat) (Septoria nodorum (Wheat); [8]) | POCO (Percentage of Control) disease level, Puccinia recondita (Wheat) [2, 9] | POCO (Percentage of Control) disease level, Plasmopara viticola (Vines) [3, 8] | POCO (Percentage of Control) disease level, Phytophthora infestans (Tomatoes) [4, 8] | POCO (Percentage of Control) disease level, Pyricularia oryzae (Rice) [5, 8] | POCO (Percentage of Control) disease level, Venturia inaequalis (Apples) [6, 8] | POCO (Percentage of Control) disease level, Thanatephorus cucumeries (Rice) [7, 8] | POCO (Percentage of Control) disease level, Erysiphe graminis tritici (Wheat) ([1]; 10 ppm foliar spray only) | POCO (Percentage of Control) disease level, Septoria nodorum (Wheat) (Septoria nodorum (Wheat); 10 ppm foliar spray only) | POCO (Percentage of Control) disease level, Puccinia recondita (Wheat) [2, 10] | POCO (Percentage of Control) disease level, Plasmopara viticola (Vines) ([3]; 10 ppm foliar spray only) | POCO (Percentage of Control) disease level, Phytophthora infestans (Tomatoes) ([4]; 10 ppm foliar spray only) | POCO (Percentage of Control) disease level, Pyricularia oryzae (Rice) ([5]; 10 ppm foliar spray only) | POCO (Percentage of Control) disease level, Venturia inaequalis (Apples) ([6]; 10 ppm foliar spray only) | POCO (Percentage of Control) disease level, Thanatephorus cucumeries (Rice) ([7]; 10 ppm foliar spray only) | POCO (Percentage of Control) disease level, Puccinia recondita (Wheat) [2, 11] |
| --- | --- | --- | --- | --- | --- | --- | --- | --- | --- | --- | --- | --- | --- | --- | --- | --- | --- |
| CCN(C(=O)OCc1ccccc1C(=COC)C(=O)OC)c1c(F)cccc1F [23 (3)] | 0 (0 = 0% disease present) | 5 (5 = 3.1-5% disease present) | 0+ (0 = 0% disease present) | 0 (0 = 0% disease present) | 5 (5 = 3.1-5% disease present) | 1 (1 = 0.1-1% disease present) | 0 (0 = 0% disease present) | 0 (0 = 0% disease present) | – | – | – | – | – | – | – | – | – |
| COC=C(C(=O)OC)c1ccccc1COC(=O)N(C(C)=O)c1ccccc1Cl [12 (99)] | 30 (30 = 20.1-30% disease present) | 10 (10 = 5.1-10% disease present) | 30+ (30 = 20.1-30% disease present) | 0 (0 = 0% disease present) | 90 (90 and 94 = 60.1-100% disease present) | 10 (10 = 5.1-10% disease present) | 5 (5 = 3.1-5% disease present) | 90 (90 and 94 = 60.1-100% disease present) | – | – | – | – | – | – | – | – | – |
| COC=C(C(=O)OC)c1ccccc1COC(=O)N(CC(F)F)c1cccc([N+](=O)[O-])c1 [6 (5)] | – | – | – | – | – | – | – | – | 20 (20 and 24 = 10.1-20% disease present) | 90 (90 and 94 = 60.1-100% disease present) | 90+ (90 and 94 = 60.1-100% disease present) | 90 (90 and 94 = 60.1-100% disease present) | 90 (90 and 94 = 60.1-100% disease present) | 60 (60 = 30.1-60% disease present) | 0 (0 = 0% disease present) | 90 (90 and 94 = 60.1-100% disease present) | – |
| COC=C(C(=O)OC)c1ccccc1COC(=O)Nc1ccccc1F [3 (1)] | 0 (0 = 0% disease present) | 0 (0 = 0% disease present) | – | 0 (0 = 0% disease present) | 30 (30 = 20.1-30% disease present) | 90 (90 and 94 = 60.1-100% disease present) | 1 (1 = 0.1-1% disease present) | 90 (90 and 94 = 60.1-100% disease present) | – | – | – | – | – | – | – | – | 0 (0 = 0% disease present) |
| COC=C(C(=O)OC)c1ccccc1COC(=O)N(C)c1ccc(F)c([N+](=O)[O-])c1 [105 (2)] | 0 (0 = 0% disease present) | 90 (90 and 94 = 60.1-100% disease present) | 90+ (90 and 94 = 60.1-100% disease present) | 0 (0 = 0% disease present) | 0 (0 = 0% disease present) | 5 (5 = 3.1-5% disease present) | 10 (10 = 5.1-10% disease present) | 0 (0 = 0% disease present) | – | – | – | – | – | – | – | – | – |
| COC=C(C(=O)OC)c1ccccc1COC(=O)Nc1cc(F)ccc1F [27 (1)] | – | – | – | – | – | – | – | – | 90 (90 and 94 = 60.1-100% disease present) | 90 (90 and 94 = 60.1-100% disease present) | 90+ (90 and 94 = 60.1-100% disease present) | 90 (90 and 94 = 60.1-100% disease present) | 90 (90 and 94 = 60.1-100% disease present) | 30 (30 = 20.1-30% disease present) | 90 (90 and 94 = 60.1-100% disease present) | 90 (90 and 94 = 60.1-100% disease present) | – |
| COC=C(C(=O)OC)c1ccccc1COC(=O)N1CCSCC1 [4 (133)] | 90 (90 and 94 = 60.1-100% disease present) | 90 (90 and 94 = 60.1-100% disease present) | 60+ (60 = 30.1-60% disease present) | 0 (0 = 0% disease present) | 90 (90 and 94 = 60.1-100% disease present) | 90 (90 and 94 = 60.1-100% disease present) | 10 (10 = 5.1-10% disease present) | 60 (60 = 30.1-60% disease present) | – | – | – | – | – | – | – | – | – |
| CO/C=C(/C(=O)OC)c1ccccc1COC(=O)Nc1ccccc1 [5 (1), (E)-methyl 3-methoxy-2-[2-((phenyl)carbamoyloxymethyl)phenyl]propenoate] | 60 (60 = 30.1-60% disease present) | 30 (30 = 20.1-30% disease present) | – | 5 (5 = 3.1-5% disease present) | 60 (60 = 30.1-60% disease present) | 10 (10 = 5.1-10% disease present) | 30 (30 = 20.1-30% disease present) | 60 (60 = 30.1-60% disease present) | – | – | – | – | – | – | – | – | 60 (60 = 30.1-60% disease present) |
| COC=C(C(=O)OC)c1ccccc1COC(=O)Nc1cccc(F)c1 [8 (1)] | – | – | – | – | – | – | – | – | 60 (60 = 30.1-60% disease present) | 90 (90 and 94 = 60.1-100% disease present) | 0+ (0 = 0% disease present) | 90 (90 and 94 = 60.1-100% disease present) | 90 (90 and 94 = 60.1-100% disease present) | 10 (10 = 5.1-10% disease present) | 0 (0 = 0% disease present) | 90 (90 and 94 = 60.1-100% disease present) | – |
| CCN(C(=O)OCc1ccccc1C(=COC)C(=O)OC)c1ccc(F)cc1 [13 (3)] | 0 (0 = 0% disease present) | 0 (0 = 0% disease present) | 0+ (0 = 0% disease present) | 0 (0 = 0% disease present) | 0 (0 = 0% disease present) | 0 (0 = 0% disease present) | 0 (0 = 0% disease present) | 0 (0 = 0% disease present) | – | – | – | – | – | – | – | – | – |
| COC=C(C(=O)OC)c1ccccc1COC(=O)Nc1ccccc1Cl [12 (1)] | 0 (0 = 0% disease present) | 10 (10 = 5.1-10% disease present) | 10+ (10 = 5.1-10% disease present) | 0 (0 = 0% disease present) | 30 (30 = 20.1-30% disease present) | 5 (5 = 3.1-5% disease present) | 0 (0 = 0% disease present) | 30 (30 = 20.1-30% disease present) | – | – | – | – | – | – | – | – | – |
| COC=C(C(=O)OC)c1ccccc1COC(=O)Nc1ccc(F)c(F)c1 [28 (1)] | – | – | – | – | – | – | – | – | 90 (90 and 94 = 60.1-100% disease present) | 30 (30 = 20.1-30% disease present) | 5+ (5 = 3.1-5% disease present) | 30 (30 = 20.1-30% disease present) | 90 (90 and 94 = 60.1-100% disease present) | 0 (0 = 0% disease present) | 60 (60 = 30.1-60% disease present) | 90 (90 and 94 = 60.1-100% disease present) | – |
| COC=C(C(=O)OC)c1ccccc1OC(=O)Nc1ccc(F)cc1F [24 (17)] | 0 (0 = 0% disease present) | 0 (0 = 0% disease present) | 0+ (0 = 0% disease present) | 0 (0 = 0% disease present) | 0 (0 = 0% disease present) | 0 (0 = 0% disease present) | 0 (0 = 0% disease present) | 60 (60 = 30.1-60% disease present) | – | – | – | – | – | – | – | – | – |
